The subject of the assay is C2C12 myotubes + simvastatin, ATP luminescence, 48 h. The assay is described as follows: rescue of simvastatin-induced ATP loss – cell-based, C2C12 myotubes, ATP luminescence, cherry pick, dose response (AID 624405).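 Further: myotubes are challenged with simvastatin at 10 µM to lower ATP.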

Inconclusive results are not listed.

As for `C[C@H](CO)N1C[C@H](C)[C@@H](CN(C)S(=O)(=O)c2ccc(Cl)cc2)Oc2ccc(NC(=O)NC3CCCCC3)cc2CC1=O`, the AC40 was 10.3 µM.
Then `C[C@H](CO)N1C[C@H](C)[C@H](CN(C)CC2CCCCC2)Oc2ccc(NC(=O)CCCCCC(=O)Nc3ccccc3N)cc2CC1=O`, with 10.1 µM; and `C[C@@H]1CN([C@H](C)CO)C(=O)c2cc(NS(=O)(=O)c3ccc(Cl)cc3)ccc2O[C@@H]1CN(C)Cc1ccc(C(=O)Nc2ccccc2N)cc1`, with 11.3 µM.
Regarding `O=C(CNc1cccc(F)c1)N1CCc2ccccc2C1`, the AC40 is 3.26 µM.
The same measure for `CC(C)CC#Cc1cnc2c(c1)C(=O)N([C@H](C)CO)C[C@H](C)[C@@H](CN(C)C(=O)Cc1ccccc1)O2`: 9.7 µM.
With `Cc1ccc(NS(=O)(=O)c2ccc(-n3cccn3)cc2)cc1F`, the AC40 was 5.32 µM.
Take `Cc1ccc(C2OC(=O)c3ccccc32)cc1` (centres undefined): the AC40 is 2.21 µM.
Consider `CCn1c(CNc2ccc(F)cc2)nnc1SCC(=O)Nc1ccc(OC)cc1`, for which the AC40 was 5.81 µM.
The same measure for `COc1ccc(S(=O)(=O)N(C)C[C@@H]2Oc3ccc(NS(=O)(=O)c4ccc(Cl)cc4)cc3CC(=O)N([C@@H](C)CO)C[C@H]2C)cc1`: 11.8 µM; for `C[C@@H]1CN([C@H](C)CO)C(=O)c2cc(NC(=O)Nc3cccc4ccccc34)ccc2O[C@@H]1CN(C)Cc1ccc(C(=O)Nc2ccccc2N)cc1`: 6.44 µM.
With `N#C[C@@H]1[C@@H](c2ccc(-c3ccc(F)cc3)cc2)[C@H](CO)N1C(=O)Cc1ccccc1`, the AC40 was 9.36 µM.
`CN(c1ccc(Cl)cc1)c1cc(=O)n(C)c2ccccc12`: the AC40 is under 0.16 µM.
Turning to `COc1ccc(C#Cc2cnc3c(c2)C(=O)N([C@H](C)CO)C[C@H](C)[C@@H](CN(C)C(=O)Nc2cccc(OC)c2)O3)cc1`, the AC40 was 1.38 µM.
Consider `C[C@H]1CN([C@@H](C)CO)C(=O)c2cc(NC(=O)Cc3cn(C)c4ccccc34)ccc2O[C@H]1CN(C)Cc1ccc(C(=O)Nc2ccccc2N)cc1`, for which the AC40 is 3.17 µM.
The same measure for `C[C@@H]1CN([C@H](C)CO)C(=O)c2cccc(NC(=O)Nc3ccccc3)c2O[C@H]1CN(C)Cc1ccc(C(=O)Nc2ccccc2N)cc1`: 11 µM.
Then `C[C@H](CO)N1C[C@H](C)[C@@H](CN(C)Cc2ccc(Cl)c(Cl)c2)Oc2ccc(NC(=O)C3CC3)cc2CC1=O`, with 1.23 µM.
On to `COc1ccc(S(=O)(=O)Nc2ccc3c(c2)C(=O)N([C@@H](C)CO)C[C@H](C)[C@H](CN(C)S(=O)(=O)c2ccc(F)cc2)OCCCC[C@@H](C)O3)cc1`, for which the AC40 was 17.7 µM.
As to `COc1ccc(CN(C)C[C@H]2Oc3ccc(NS(=O)(=O)c4ccc(Cl)cc4)cc3CC(=O)N([C@@H](C)CO)C[C@@H]2C)cc1`, the AC40 was 0.484 µM.
The same measure for `C[C@H](CO)N1C[C@H](C)[C@@H](CN(C)Cc2ccc(Cl)c(Cl)c2)Oc2ccc(NS(=O)(=O)c3cn(C)cn3)cc2CC1=O`: 5.29 µM; for `C[C@@H]1CN([C@@H](C)CO)C(=O)c2cc(NS(=O)(=O)c3ccc(Cl)cc3)ccc2O[C@H]1CN(C)C(=O)Nc1cccc2ccccc12`: 9.49 µM; for `C[C@H](CO)N1C[C@H](C)[C@H](CN(C)Cc2ccc(C(=O)Nc3ccccc3N)cc2)Oc2ccc(NC(=O)Cc3cn(C)c4ccccc34)cc2C1=O`: 6.08 µM.
For `O=S(=O)(NCc1ccco1)c1ccc(S(=O)(=O)N2CCCCC2)cc1`, the AC40 was 5.03 µM.
The same measure for `Fc1ccc(-c2csc(Nc3ccccn3)n2)cc1`: 7.31 µM; for `C[C@@H]1CN([C@@H](C)CO)C(=O)c2cc(NC(=O)Nc3cccc4ccccc34)ccc2O[C@@H]1CN(C)Cc1ccc(C(=O)Nc2ccccc2N)cc1`: 2.85 µM; for `C[C@H](CO)N1C[C@H](C)[C@@H](CN(C)Cc2ccc(Cl)c(Cl)c2)Oc2ccc(NS(=O)(=O)c3ccc(F)cc3)cc2CC1=O`: 19 µM.
Then `CC(C)Nc1ncnc2c1cnn2Cc1ccc(Cl)cc1`, with 0.544 µM.
`O=C(Nc1ccc2nc3n(c(=O)c2c1)CCCCC3)c1c(F)ccc([N+](=O)[O-])c1F`: the AC40 was 4.3 µM.
As to `C[C@H]1CN([C@@H](C)CO)C(=O)c2cccc(NC(=O)Nc3ccc(C(F)(F)F)cc3)c2O[C@H]1CN(C)CC1CCCCC1`, the AC40 is 19.1 µM.
Turning to `O=C(NCc1ccco1)c1cc2sccc2n1Cc1ccccc1`, the AC40 is 0.839 µM.
As to `O=S(=O)(c1ccccc1)c1nc(-c2ccco2)oc1N1CCCCCC1`, the AC40 is 6.08 µM.
As for `COc1ccccc1C(=O)Nc1ccc2c(c1)OCO2`, the AC40 was 4.38 µM.
With `CCCNC(=O)Cc1c(O)c2ccccc2[nH]c1=O`, the AC40 is 18.6 µM.
In the case of `COc1ccc(CN2[C@H](CO)[C@H]3c4ccccc4NC[C@H]32)cc1`, the AC40 was 17.8 µM.
In the case of `C[C@H](CO)N1C[C@H](C)[C@H](CN(C)Cc2ccc(C(=O)Nc3ccccc3N)cc2)Oc2ccc(NC(=O)Nc3cccc4ccccc34)cc2C1=O`, the AC40 was 8.83 µM.
For the compound `COc1ccc(CC2NCC(O)C2OC(C)=O)cc1` (centres undefined), the AC40 was 0.275 µM.
The same measure for `C[C@@H]1CN([C@H](C)CO)C(=O)Cc2cc(NC(=O)C3CCCCC3)ccc2O[C@H]1CN(C)Cc1ccc(Cl)c(Cl)c1`: 5.24 µM.
Regarding `O=C(/C=C/Sc1ncn[nH]1)c1ccc(Cl)cc1`, the AC40 is 6.34 µM.
Consider `CC1(Cc2ccccc2OC(F)(F)F)C(=O)Nc2ccc(S(=O)(=O)NC3CCCCC3)cc21` (centres undefined), for which the AC40 is 6.62 µM.
The same measure for `C[C@H](CO)N1C[C@H](C)[C@H](CN(C)Cc2ccc3c(c2)OCO3)Oc2ccc(NC(=O)CCCCCC(=O)Nc3ccccc3N)cc2CC1=O`: 14.9 µM.
For `CC1CCN(c2nc3c(c(=O)[nH]c(=O)n3C)n2CCCc2ccccc2)CC1`, the AC40 is 4.71 µM.
The same measure for `CC(=O)C(=Nc1ccccc1Cl)NNc1ccc(Cl)cc1`: 6.58 µM; for `O=C(c1cccc(Cl)c1)c1nn(-c2ccccc2)c(=O)cc1C(F)(F)F`: 4.99 µM; for `CCCCCn1c(=O)c(C(=O)c2ccccc2)nc2ccccc21`: 15.6 µM.
Regarding `Cc1ccc(S(=O)(=O)Nc2ccc3c(c2)CC(=O)N([C@@H](C)CO)C[C@H](C)[C@@H](CN(C)Cc2ccc(Cl)c(Cl)c2)O3)cc1`, the AC40 is 11.9 µM.
In the case of `Cc1nnsc1NC(=O)OCc1ccc(C(F)(F)F)cc1`, the AC40 was 8.84 µM.
The same measure for `Cc1[nH]nc2c1C1(C(=O)N(Cc3ccc(Cl)cc3)c3ccccc31)C(C#N)=C(N)O2` (centres undefined): 4.72 µM.
For the compound `CC(C)(C)c1ccc(Cn2nnc3c(=O)[nH]c(C4CCN(C(=O)Cc5cccs5)CC4)nc32)cc1`, the AC40 is 3.99 µM.
The same measure for `Oc1ccc(-c2csc(Nc3ccc4c(c3)OCO4)n2)c(O)c1`: 10.5 µM; for `C[C@@H]1CN([C@H](C)CO)C(=O)Cc2cc(NS(=O)(=O)c3ccc(Cl)cc3)ccc2O[C@H]1CN(C)Cc1ccccc1`: 4.44 µM.
Take `C[C@H]1CN([C@@H](C)CO)C(=O)Cc2cc(NC(=O)CCCCCC(=O)Nc3ccccc3N)ccc2O[C@H]1CN(C)Cc1ccc(-c2ccccc2)cc1`: the AC40 is 7.68 µM.
For the compound `C[C@@H]1CN([C@@H](C)CO)C(=O)Cc2cc(NC(=O)CCCCCC(=O)Nc3ccccc3N)ccc2O[C@H]1CN(C)Cc1ccccc1`, the AC40 was 12.2 µM.
Take `Clc1ccc(Cn2ncc3c(N4CCCCC4)ncnc32)cc1`: the AC40 is 15.8 µM.
As to `Cc1noc(C)c1S(=O)(=O)Nc1ccc2c(c1)CC(=O)N([C@H](C)CO)C[C@@H](C)[C@@H](CN(C)Cc1ccc(-c3ccccc3)cc1)O2`, the AC40 was 3.64 µM.
With `COc1cc(CNc2ncnc3c2ncn3[C@H]2CN(Cc3cccc4ccccc34)C[C@@H](CO)O2)cc(OC)c1OC`, the AC40 was 1.36 µM.
Then `COc1ccc(Nc2nc3ccc(C)cn3c(=O)c2/C=N/O)cc1`, with 15.2 µM; and `Cc1ccc(C(C(=O)NC2CCCC2)N(C(=O)Cc2cccs2)c2ccc3c(c2)OCCO3)cc1` (centres undefined), with 19 µM; and `C[C@H]1CN([C@@H](C)CO)C(=O)c2cc(NC(=O)Nc3cccc4ccccc34)ccc2O[C@H]1CN(C)Cc1ccc(C(=O)Nc2ccccc2N)cc1`, with 5.45 µM.
Regarding `COc1cc(OC)cc(-c2nnc(SCC(=O)N3CCCc4ccccc43)o2)c1`, the AC40 was 16.8 µM.
Consider `COc1ccc(C(=O)Nc2ccccc2N2CCOCC2)cc1Br`, for which the AC40 is 12.1 µM.
For `C=CCn1c(=O)c2c(nc3n2CC(C)CN3c2cccc(OC)c2)n(C)c1=O` (centres undefined), the AC40 was 10.5 µM.
Turning to `Cc1ccc(NS(=O)(=O)c2ccc(-n3cccn3)cc2)cc1C`, the AC40 was 16.1 µM.
As to `Oc1ccc(Cl)cc1C1=NNC(c2cccs2)C1` (centres undefined), the AC40 was 11.4 µM.
For `Cc1cccn2c(=O)c(C=O)c(N3CCCCCC3)nc12`, the AC40 was 15.1 µM.
In the case of `O=c1[nH]cnc2scc(-c3ccsc3)c12`, the AC40 was 13.2 µM.
Regarding `CC1(Cc2cccc(F)c2)C(=O)Nc2ccc(S(=O)(=O)NC3CCCCC3)cc21` (centres undefined), the AC40 is 1.66 µM.
For `CCSc1nnc(NC(=O)c2c(-c3ccccc3Cl)noc2C)s1`, the AC40 was 13.9 µM.
With `C[C@@H]1CN([C@H](C)CO)C(=O)Cc2cc(NC(=O)CCCCCC(=O)Nc3ccccc3N)ccc2O[C@@H]1CN(C)Cc1ccc(Cl)c(Cl)c1`, the AC40 was 9.57 µM.
Consider `N#C[C@@H]1[C@@H](c2ccccc2)[C@H](CO)N1S(=O)(=O)c1ccc(-c2ccccc2)cc1`, for which the AC40 is 8.78 µM.
The same measure for `COc1cccc(-c2ccc([C@@H]3[C@@H](C#N)N(C(=O)Cc4ccccc4)[C@H]3CO)cc2)c1`: 11.5 µM; for `O=C1C[C@@H]2c3c(cccc3CN1Cc1ccccc1F)C[C@@H](O)[C@H]2O`: 17.2 µM; for `C[C@H](CO)N1C[C@H](C)[C@@H](CN(C)Cc2ccc(Cl)c(Cl)c2)Oc2ccc(NS(C)(=O)=O)cc2CC1=O`: 9.83 µM.
For `Cc1csc(NC(=O)CSc2nc3[nH]c(=O)cc(O)c3s2)n1`, the AC40 is 4.2 µM.
The same measure for `Cc1ccc(S(=O)(=O)Nc2ccc3c(c2)CC(=O)N([C@H](C)CO)C[C@H](C)[C@@H](CN(C)Cc2ccc4c(c2)OCO4)O3)cc1`: 14.1 µM.
For the compound `C=CCOc1ccc(Br)cc1/C=N/O`, the AC40 was 17.9 µM.
Consider `Cc1cc(C(=O)COC(=O)C2=NNC(=O)CC2)c(C)n1-c1ccccc1`, for which the AC40 was 11.7 µM.
`CCS(=O)(=O)c1ncc(Cl)c(C(=O)Nc2ccccc2OC)n1`: the AC40 was 2.12 µM.
Take `Cc1c(NC(=O)CSc2ccccn2)c(=O)n(-c2ccccc2)n1C`: the AC40 was 10.7 µM.
Then `CCOC(=O)N1CCN(C(=O)COc2ccc(S(=O)(=O)NC3CCCCC3)cc2C)CC1`, with 14.1 µM.
For the compound `C[C@H](CO)N1C[C@H](C)[C@@H](CN(C)Cc2ccc(C(F)(F)F)cc2)Oc2ccc(NC(=O)CCCCCC(=O)Nc3ccccc3N)cc2CC1=O`, the AC40 was 8.51 µM.

The record behind these values is PubChem BioAssay AID624405 (Broad Institute, 2012).
